These results are taken from article PMC9004346, “Development of small cyclic peptides targeting the CK2α/β interface” (Chemical Communications (Cambridge, England), 2022).

Read-outs that look alike come from different tables or passages of the source.

In turn, CC4RLYGFKCC4 had a ring closure, yield after HPLC (crosslinker bond, 29-membered ring, TCEP, dichloroacetone, phosphate buffer pH 8/DMF 1:2, 1.3 mM) of 8%.
Substance CC8RLYGFKWC8 yielded a ring closure, yield after HPLC (thioether bond, 27-membered ring, I2, H2O/MeCN, 0.46 mM) of 25%.
GXC1RLYGFKWHXC1GG had a ring closure, yield after HPLC (crosslinker bond, 39-membered ring, 3,5-diethynylbenzoic acid/CuSO4/THPTA/Na ascorbate, tBuOH/H2O 1:1, 0.48 mM) of 2%.
As for JC3RLYGFKXC3, the ring closure, yield after HPLC (triazole bond, 26-membered ring, [Cp*RuCl]4 30 mol%, tBuOH/H2O 1:1, 0.61 mM) amounted to 3%.
As to CC6RLYGFKCC6, the ring closure, yield after HPLC (crosslinker bond, 27-membered ring, TCEP/K2CO3, CH2I2/NEt3, H2O/THF, 3.7 mM) came to 19%.
JC2RLYGFKXC2 registered a ring closure, yield after HPLC (triazole bond, 27-membered ring, CuSO4/Na ascorbate/DIEA, H2O, 1.3 mM) of 19%.
Regarding CC7RLYGFKCC7, under “crosslinker bond, 33-membered ring, N-(4,6-divinylpyrimidin-2-yl)-N-methylglycine, phosphate buffer pH 8/DMF, 1.6 mM”, the ring closure, yield after HPLC is 17%.
